Calls of active or inactive are those of the source.
Tests used:
[1] = molecular target: T1, Alkaline phosphatase, tissue-nonspecific isozyme (Homo sapiens, UniProt P05186); test: human TNAP enzyme inhibitors, SAR follow-up, biochemical, luminescent, dose response (AID 1056)
T1 sequence (P05186 whole entry): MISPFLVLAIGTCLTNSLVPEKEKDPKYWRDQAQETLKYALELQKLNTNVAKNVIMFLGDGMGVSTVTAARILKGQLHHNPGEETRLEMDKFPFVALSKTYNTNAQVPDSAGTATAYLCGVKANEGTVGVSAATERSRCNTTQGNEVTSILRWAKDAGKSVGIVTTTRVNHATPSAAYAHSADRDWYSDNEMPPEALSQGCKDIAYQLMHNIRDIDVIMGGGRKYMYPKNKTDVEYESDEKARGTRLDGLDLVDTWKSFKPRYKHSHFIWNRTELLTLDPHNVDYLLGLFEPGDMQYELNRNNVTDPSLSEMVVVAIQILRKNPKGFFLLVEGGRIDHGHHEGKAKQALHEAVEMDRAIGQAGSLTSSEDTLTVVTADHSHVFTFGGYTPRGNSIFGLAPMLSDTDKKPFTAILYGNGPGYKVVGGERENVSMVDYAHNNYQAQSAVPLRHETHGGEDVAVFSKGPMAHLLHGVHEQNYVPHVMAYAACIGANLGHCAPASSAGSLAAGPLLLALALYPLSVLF

[2] = molecular target: Glyceraldehyde-3-phosphate dehydrogenase (Homo sapiens, UniProt P04406)
[3] = molecular target: Glucose-6-phosphate 1-dehydrogenase (Homo sapiens, UniProt P11413); test: human G6PD enzyme inhibitors, dose response, selectivity assay for P. falciparum G6PD inhibitor project, biochemical, fluorescence (AID 504792); assay type: functional
[4] = molecular target: Cytochrome P450 2C19 (Homo sapiens, UniProt P33261); test: Cytochrome panel assay with activity outcomes. Panel member name: p450-cyp2c19 Compounds with AC50 equal or less than 10 uM are considered active; assay type: functional; conditions: read-out: AC50
[5] = molecular target: Prothrombin (Bos taurus, UniProt P00735); test: thrombin inhibition, dose response, biochemical, fluorescence polarization, uHTS hits (AID 602369); assay type: functional
[6] = molecular target: T2, Protein skinhead-1 (Caenorhabditis elegans, UniProt P34707); assay type: functional
T2 sequence (P34707 whole entry): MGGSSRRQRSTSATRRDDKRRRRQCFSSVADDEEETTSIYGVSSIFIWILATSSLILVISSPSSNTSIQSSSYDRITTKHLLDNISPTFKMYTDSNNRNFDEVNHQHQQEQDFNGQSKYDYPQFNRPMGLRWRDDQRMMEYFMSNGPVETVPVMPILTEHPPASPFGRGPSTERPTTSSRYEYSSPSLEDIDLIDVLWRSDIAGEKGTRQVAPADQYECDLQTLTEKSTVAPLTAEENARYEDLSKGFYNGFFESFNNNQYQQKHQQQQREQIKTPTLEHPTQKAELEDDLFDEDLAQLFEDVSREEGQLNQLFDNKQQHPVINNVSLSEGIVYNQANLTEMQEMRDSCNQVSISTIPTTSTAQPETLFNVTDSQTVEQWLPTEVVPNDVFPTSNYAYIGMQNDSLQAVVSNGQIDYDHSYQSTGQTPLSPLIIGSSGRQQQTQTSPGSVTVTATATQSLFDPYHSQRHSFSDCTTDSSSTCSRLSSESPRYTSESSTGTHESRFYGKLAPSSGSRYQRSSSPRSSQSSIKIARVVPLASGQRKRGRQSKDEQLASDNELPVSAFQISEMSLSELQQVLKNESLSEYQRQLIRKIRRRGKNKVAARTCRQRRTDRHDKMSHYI

[7] = molecular target: 72 kDa type IV collagenase (Homo sapiens, UniProt P08253); test: Dose Response validation of uHTS RPN11 inhibitor hits using a MMP-2 Fluorescence assay.; assay type: functional
[8] = molecular target: 26S proteasome non-ATPase regulatory subunit 14 (Homo sapiens, UniProt O00487); test: inhibition of proteasome subunit RPN11 – biochemical, fluorescence polarization, uHTS hits, confirmation (AID 602368); assay type: functional
[9] = molecular target: T3, Delta-type opioid receptor (Homo sapiens, UniProt P41143); test: HTS Image-Based Screen for Agonists of the DOR Receptor. [Related pubchem assays (depositor defined):AID1777, AID1786, AID2133]; assay type: functional
[10] = molecular target: Mu-type opioid receptor (Homo sapiens, UniProt P35372); test: HTS Image-Based Screen for Agonists of the MOR Receptor. [Related pubchem assays (depositor defined):AID1777, AID1785, AID1786, AID2133]; assay type: functional;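 further: imaging of beta-arrestin GFP recruitment into spots after receptor activation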
[11] = molecular target: T3, Delta-type opioid receptor; test: HTS Image-Based Screen for Antagonists of the DOR Receptor. [Related pubchem assays (depositor defined):AID1777, AID1785, AID1786, AID2133]; assay type: functional
[12] = molecular target: T4, Kappa-type opioid receptor (Homo sapiens, UniProt P41145); assay type: functional
[13] = molecular target: Beta-galactosidase (Escherichia coli, UniProt Q8VNN2); assay type: functional
[14] = molecular target: T4, Kappa-type opioid receptor; assay type: functional; remark: listed apart in the source
[15] = molecular target: Heat shock protein HSP 90-alpha (Homo sapiens, UniProt P07900); assay type: functional, organism-based
[16] = molecular target: T5, Short transient receptor potential channel 4 (Mus musculus, UniProt Q9QUQ5); test: mouse TRPC4 channel inhibitors, dose response, cell-based, HEK293 TRPC4/mu-opioid, Fluo-4 calcium (AID 434942); assay type: functional;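 further: potency of inhibitors blocking the TRPC4 calcium response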
T5 sequence (Q9QUQ5 whole entry): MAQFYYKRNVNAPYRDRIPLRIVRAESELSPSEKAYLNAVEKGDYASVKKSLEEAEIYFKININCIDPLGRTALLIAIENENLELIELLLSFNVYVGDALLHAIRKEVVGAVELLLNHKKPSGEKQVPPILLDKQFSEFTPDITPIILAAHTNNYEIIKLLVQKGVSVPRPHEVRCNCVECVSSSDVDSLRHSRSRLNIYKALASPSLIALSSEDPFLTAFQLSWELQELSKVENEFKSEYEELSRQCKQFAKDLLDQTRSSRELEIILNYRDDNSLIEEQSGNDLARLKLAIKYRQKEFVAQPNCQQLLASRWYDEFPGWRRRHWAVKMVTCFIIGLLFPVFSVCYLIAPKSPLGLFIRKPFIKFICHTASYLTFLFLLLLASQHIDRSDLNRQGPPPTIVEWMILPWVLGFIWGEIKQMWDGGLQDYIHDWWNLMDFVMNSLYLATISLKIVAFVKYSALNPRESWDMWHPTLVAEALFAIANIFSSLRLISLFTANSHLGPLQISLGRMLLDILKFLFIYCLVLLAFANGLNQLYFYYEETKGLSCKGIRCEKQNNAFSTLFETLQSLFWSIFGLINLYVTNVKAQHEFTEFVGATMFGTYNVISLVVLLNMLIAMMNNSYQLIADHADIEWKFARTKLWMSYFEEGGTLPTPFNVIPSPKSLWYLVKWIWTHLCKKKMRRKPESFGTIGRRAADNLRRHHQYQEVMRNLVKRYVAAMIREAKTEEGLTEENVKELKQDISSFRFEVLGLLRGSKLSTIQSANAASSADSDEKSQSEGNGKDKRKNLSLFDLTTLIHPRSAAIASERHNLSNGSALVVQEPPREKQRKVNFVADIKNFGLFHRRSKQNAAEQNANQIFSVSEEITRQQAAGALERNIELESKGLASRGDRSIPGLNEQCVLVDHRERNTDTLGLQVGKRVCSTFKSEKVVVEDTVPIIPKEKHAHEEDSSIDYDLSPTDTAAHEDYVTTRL

[17] = molecular target: T5, Short transient receptor potential channel 4; test: mouse TRPC4 channel activators, dose response, cell-based, HEK293 TRPC4/mu-opioid, Fluo-4 calcium (AID 434937); assay type: functional
[18] = molecular target: Cytochrome P450 3A4 (Homo sapiens, UniProt P08684);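 further: CYP3A4 tested as one member of a cytochrome P450 panel screen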
[19] = inhibitors of intracellular T. cruzi replication, confirmation, NIH3T3 host cells, beta-gal luminescence (AID 2044); assay type: functional, cell-based;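 further: intracellular parasites grown in NIH/3T3 mouse fibroblasts as host cells; luminescent beta-galactosidase reporter signal from transgenic T. cruzi replicating inside host cells; inhibitors lower the luminescence signal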
[20] = growth suppression of PTEN-null colon cells, dose response, cell-based, HCT116 PTEN knockout (AID 1047); assay type: functional;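 further: HCT116 colon tumor cells with PTEN knocked out; cells exposed to compound for 60 hours before readout; potency for loss of cell viability measured by luminescence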
[21] = molecular target: T6, Microphthalmia-associated transcription factor (Homo sapiens, UniProt O75030); test: TRPM1 promoter luciferase signal decrease, dose response, MITF inhibitor project, cell-based, SK-MEL-5, cherry-picked, set 3 (AID 493073); assay type: functional
T6 sequence (O75030 whole entry): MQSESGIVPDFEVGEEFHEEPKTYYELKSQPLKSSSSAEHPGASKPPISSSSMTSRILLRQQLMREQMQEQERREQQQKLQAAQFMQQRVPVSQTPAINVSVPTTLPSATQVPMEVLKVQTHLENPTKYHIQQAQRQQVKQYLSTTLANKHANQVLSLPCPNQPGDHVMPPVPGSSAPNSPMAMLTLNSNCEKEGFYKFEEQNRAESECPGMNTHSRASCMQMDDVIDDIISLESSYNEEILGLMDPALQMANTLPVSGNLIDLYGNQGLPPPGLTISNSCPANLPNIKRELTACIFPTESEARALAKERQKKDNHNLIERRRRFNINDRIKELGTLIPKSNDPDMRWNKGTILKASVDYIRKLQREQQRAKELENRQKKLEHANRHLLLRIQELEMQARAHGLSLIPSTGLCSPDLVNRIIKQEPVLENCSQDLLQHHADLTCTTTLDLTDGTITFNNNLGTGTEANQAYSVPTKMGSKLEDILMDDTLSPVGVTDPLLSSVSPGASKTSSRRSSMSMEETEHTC

[22] = growth suppression of beta-catenin-knockout colon cells, dose response, cell-based, HCT116, human colon tumor (AID 1045); assay type: functional;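 further: HCT116 colon tumor cells with beta catenin knocked out; cells exposed to compound for 60 hours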
[23] = cytotoxicity toward NIH3T3 fibroblasts, dose response, counter-screen, cell-based, ATP luminescence, mouse fibroblasts (AID 2010); assay type: functional;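 further: cells exposed to compound for about 90 hours before reading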
[24] = C. albicans growth with fluconazole, confirmation, fluorescence, retest (AID 2467); assay type: functional, cell-based
[25] = tested on: INS1; test: beta cell apoptosis inhibitors, cytokine rescue, dose response, luminescence, retest (AID 449756); assay type: functional, cell-based; conditions: Rattus norvegicus;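 further: cell death triggered by IL-1 beta plus TNF-alpha plus IFN-gamma mixture; protective hits raise ATP signal compared with cytokine alone wells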
[26] = NIH-3T3 fibroblast cytotoxicity, dose response, cytotoxicity control, cell-based, fluorescence, Alamar Blue, secondary assay (AID 2327); assay type: functional;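 further: NIH-3T3 mouse fibroblasts cultured with fluconazole at 8 µg/mL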
[27] = molecular target: T7, Low molecular weight phosphotyrosine protein phosphatase (Homo sapiens, UniProt P24666); assay type: functional; conditions: read-out: IC50_Mean;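 further: Dose-response confirmation assay measuring inhibition of LMPTP enzyme activity by fluorescence intensity read-out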
T7 sequence (P24666 whole entry): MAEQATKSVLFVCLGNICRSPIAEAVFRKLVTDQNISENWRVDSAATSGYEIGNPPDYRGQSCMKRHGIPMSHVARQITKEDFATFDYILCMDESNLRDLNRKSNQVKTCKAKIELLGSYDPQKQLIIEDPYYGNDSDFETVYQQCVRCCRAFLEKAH

Chain of 26S proteasome non-ATPase regulatory subunit 14 (O00487 whole entry): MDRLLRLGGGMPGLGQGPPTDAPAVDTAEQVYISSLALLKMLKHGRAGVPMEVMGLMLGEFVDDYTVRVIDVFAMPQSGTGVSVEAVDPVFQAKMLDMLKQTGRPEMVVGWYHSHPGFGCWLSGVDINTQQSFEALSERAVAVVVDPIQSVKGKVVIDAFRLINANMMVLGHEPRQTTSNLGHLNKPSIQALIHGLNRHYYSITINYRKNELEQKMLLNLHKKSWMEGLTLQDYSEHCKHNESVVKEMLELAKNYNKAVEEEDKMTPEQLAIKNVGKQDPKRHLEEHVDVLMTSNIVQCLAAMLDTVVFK
Chain of 72 kDa type IV collagenase (P08253 whole entry): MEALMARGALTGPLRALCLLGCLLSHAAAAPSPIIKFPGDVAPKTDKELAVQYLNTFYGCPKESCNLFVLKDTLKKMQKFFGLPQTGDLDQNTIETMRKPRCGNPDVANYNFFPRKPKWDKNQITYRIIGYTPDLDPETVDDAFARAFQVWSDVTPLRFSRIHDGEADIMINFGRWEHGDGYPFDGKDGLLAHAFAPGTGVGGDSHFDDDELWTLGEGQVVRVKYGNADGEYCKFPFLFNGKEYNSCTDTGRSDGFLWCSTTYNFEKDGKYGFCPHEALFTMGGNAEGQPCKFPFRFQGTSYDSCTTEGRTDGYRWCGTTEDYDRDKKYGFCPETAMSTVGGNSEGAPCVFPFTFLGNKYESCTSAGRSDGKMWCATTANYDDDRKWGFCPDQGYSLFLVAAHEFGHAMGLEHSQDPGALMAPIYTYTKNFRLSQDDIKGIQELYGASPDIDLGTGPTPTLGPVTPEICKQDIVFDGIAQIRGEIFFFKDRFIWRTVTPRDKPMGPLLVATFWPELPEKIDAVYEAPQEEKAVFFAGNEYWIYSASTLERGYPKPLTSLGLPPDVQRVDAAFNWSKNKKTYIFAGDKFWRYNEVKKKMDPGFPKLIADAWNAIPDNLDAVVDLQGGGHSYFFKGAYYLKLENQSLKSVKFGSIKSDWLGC
T3 sequence (P41143 whole entry): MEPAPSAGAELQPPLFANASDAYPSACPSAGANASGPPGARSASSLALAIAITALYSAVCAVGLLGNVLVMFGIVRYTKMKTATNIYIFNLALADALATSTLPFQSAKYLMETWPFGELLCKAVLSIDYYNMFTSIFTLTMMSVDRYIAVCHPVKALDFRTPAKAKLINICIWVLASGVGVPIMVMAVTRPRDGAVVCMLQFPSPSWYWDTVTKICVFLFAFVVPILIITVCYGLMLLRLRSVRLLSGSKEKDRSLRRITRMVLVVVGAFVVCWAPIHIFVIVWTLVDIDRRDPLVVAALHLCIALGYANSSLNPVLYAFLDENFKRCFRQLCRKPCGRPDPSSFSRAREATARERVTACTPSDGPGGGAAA
T4 sequence (P41145 whole entry): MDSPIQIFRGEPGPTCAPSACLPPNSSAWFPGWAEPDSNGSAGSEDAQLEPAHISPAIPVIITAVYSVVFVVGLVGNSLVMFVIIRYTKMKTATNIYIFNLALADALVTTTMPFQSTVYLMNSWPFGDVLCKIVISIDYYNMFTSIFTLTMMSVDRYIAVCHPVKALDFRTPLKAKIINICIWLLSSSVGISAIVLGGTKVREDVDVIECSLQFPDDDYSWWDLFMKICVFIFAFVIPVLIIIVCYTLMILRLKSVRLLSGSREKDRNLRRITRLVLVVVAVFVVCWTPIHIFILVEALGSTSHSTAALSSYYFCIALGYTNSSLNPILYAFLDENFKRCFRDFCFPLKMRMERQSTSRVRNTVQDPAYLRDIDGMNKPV
Chain of Mu-type opioid receptor (P35372 whole entry): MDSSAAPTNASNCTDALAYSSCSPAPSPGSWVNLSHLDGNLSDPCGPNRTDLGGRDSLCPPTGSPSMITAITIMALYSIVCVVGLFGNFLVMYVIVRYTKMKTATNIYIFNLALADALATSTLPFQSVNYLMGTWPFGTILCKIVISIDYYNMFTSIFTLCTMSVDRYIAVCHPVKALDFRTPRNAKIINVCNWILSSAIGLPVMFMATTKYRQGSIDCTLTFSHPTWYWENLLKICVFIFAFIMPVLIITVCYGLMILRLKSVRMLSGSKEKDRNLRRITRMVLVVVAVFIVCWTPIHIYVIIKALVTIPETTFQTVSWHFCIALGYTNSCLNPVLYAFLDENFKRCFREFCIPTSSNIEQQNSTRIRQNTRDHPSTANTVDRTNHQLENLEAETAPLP
Chain of Cytochrome P450 2C19 (P33261 whole entry): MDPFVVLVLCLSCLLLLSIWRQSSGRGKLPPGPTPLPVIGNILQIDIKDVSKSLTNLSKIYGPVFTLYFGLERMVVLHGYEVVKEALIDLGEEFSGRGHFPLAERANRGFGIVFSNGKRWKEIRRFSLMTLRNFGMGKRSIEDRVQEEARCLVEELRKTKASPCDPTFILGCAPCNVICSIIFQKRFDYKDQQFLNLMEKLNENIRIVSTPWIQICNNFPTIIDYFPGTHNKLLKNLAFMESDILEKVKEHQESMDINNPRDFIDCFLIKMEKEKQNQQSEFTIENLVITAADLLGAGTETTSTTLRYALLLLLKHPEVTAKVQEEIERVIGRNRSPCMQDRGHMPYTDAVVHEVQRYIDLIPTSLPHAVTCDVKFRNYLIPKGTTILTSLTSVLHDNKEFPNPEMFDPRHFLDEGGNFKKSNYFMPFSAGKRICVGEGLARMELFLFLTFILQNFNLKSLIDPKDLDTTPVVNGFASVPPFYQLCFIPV
Chain of Glyceraldehyde-3-phosphate dehydrogenase (P04406 whole entry): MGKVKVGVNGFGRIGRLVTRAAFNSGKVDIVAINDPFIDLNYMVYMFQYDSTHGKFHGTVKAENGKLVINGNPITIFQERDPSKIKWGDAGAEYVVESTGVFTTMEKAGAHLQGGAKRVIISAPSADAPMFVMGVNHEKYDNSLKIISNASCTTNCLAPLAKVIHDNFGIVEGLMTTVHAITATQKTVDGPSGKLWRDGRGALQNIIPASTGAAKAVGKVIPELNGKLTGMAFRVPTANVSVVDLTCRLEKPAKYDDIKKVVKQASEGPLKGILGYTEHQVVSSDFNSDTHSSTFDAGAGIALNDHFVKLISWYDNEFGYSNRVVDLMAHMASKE
Chain of Beta-galactosidase (Q8VNN2 whole entry): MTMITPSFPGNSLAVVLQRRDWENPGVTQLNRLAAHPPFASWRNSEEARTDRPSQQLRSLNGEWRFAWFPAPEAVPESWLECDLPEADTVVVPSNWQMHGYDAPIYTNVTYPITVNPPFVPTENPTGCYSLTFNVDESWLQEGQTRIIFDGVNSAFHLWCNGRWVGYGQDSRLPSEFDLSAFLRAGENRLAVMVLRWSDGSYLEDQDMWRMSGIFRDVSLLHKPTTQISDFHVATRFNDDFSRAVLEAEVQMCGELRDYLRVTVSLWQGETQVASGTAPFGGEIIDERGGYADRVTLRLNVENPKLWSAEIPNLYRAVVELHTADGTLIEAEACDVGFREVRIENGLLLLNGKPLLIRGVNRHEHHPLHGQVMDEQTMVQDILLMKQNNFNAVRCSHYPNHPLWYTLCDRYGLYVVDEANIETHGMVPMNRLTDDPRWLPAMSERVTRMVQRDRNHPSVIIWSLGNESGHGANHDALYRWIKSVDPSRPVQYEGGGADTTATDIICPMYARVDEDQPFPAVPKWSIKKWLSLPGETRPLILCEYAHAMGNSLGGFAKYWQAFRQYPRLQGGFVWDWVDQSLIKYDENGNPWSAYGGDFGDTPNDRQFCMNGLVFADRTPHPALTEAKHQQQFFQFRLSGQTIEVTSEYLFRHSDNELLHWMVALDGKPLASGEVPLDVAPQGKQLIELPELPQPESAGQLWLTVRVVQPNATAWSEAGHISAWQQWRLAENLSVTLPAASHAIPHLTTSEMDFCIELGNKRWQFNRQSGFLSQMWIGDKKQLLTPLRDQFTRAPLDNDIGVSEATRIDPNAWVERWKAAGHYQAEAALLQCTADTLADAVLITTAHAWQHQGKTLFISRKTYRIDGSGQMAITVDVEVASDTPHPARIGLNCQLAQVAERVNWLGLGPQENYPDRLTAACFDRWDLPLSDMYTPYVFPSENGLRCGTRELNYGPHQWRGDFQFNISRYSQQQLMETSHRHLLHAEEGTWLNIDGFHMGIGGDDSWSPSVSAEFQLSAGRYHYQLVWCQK
Chain of Glucose-6-phosphate 1-dehydrogenase (P11413 whole entry): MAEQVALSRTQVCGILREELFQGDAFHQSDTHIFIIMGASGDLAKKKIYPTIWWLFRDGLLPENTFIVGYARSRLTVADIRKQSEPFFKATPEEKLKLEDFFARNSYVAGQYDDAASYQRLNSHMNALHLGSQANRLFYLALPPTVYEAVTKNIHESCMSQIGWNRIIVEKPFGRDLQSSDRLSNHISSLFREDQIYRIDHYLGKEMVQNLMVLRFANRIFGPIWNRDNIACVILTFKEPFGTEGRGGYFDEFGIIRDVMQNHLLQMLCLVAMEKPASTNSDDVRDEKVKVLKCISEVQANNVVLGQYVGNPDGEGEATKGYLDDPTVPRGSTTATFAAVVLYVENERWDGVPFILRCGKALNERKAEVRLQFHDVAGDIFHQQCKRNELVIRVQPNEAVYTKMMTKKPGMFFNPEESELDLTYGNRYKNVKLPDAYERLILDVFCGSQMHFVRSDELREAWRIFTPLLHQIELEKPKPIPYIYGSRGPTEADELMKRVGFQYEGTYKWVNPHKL
Chain of Cytochrome P450 3A4 (P08684 whole entry): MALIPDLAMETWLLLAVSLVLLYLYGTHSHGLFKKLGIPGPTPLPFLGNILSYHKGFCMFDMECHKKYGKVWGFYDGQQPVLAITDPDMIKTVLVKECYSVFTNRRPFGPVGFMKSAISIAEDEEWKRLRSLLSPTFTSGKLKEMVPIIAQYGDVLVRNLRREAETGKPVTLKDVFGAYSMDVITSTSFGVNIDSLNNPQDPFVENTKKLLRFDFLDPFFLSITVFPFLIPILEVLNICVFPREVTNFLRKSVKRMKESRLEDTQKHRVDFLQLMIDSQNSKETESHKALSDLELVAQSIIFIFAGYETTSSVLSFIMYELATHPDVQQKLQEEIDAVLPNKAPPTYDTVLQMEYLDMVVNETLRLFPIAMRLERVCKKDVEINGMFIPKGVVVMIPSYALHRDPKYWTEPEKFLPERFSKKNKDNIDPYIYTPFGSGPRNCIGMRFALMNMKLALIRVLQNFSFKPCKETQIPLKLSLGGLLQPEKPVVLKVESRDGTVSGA

Structure (SMILES): CC(C)(C)C(=O)COC(=O)c1cc(-c2ccc(Br)cc2)n[nH]1
- IC50 [1]: > 100 µM (inactive)
- IC50 [2]: > 100 µM (not active)

Structure (SMILES): CC(C)c1nnc(NC(=O)c2sc3ccccc3c2Cl)s1
- IC50 [3]: 67.9 µM (inactive)
- AC50 [4]: 22.4 µM (inconclusive)

Structure (SMILES): Cn1c2ccccc2c2cc(C(=O)OCC(=O)N3CC(=O)Nc4ccccc43)sc21
- IC50 [5]: 32.4 µM (active)
- IC50 [6]: > 100 µM (inactive)
- IC50 [7]: > 100 µM (inactive)
- IC50 [8]: 13.9 µM (active)

Structure (SMILES): CCCCN(CCCNC(=O)C1CCN(S(=O)(=O)N2CCOCC2)CC1)c1ccccc1
- EC50 [9]: > 32 µM (inactive)
- EC50 [10]: > 32 µM (inactive)
- IC50 [11]: > 32 µM (inactive)
- IC50 [12]: 4.56 µM
- EC50 [13]: > 31.5 µM (inactive)
- IC50 [14]: 25.3 µM (inactive)

Structure (SMILES): CCC1=NN2C(=N)/C(=C\c3cccn3-c3ccc(C)cc3C)C(=O)N=C2S1
- AC50 [15]: 8.16 µM (active)

Structure (SMILES): Cn1c(CNc2ccc(Cl)cc2)nnc1SCc1ccccc1
- AC50 [15]: 4.08 µM (active)

Structure (SMILES): COc1ccc(C(CNC(=O)c2cccc3cccnc23)N(C)C)cc1 (centres undefined)
- EC50 [16]: 0.531 µM (active)
- EC50 [17]: 1.19 µM (active)

Structure (SMILES): Cc1cc(OCC(=O)Nc2ccc(S(=O)(=O)N3CCN(C)CC3)cc2)cc(C)c1Cl
- EC50 [9]: > 32 µM (inactive)
- EC50 [10]: > 32 µM (inactive)
- IC50 [11]: > 32 µM (inactive)
- IC50 [12]: > 32 µM
- EC50 [13]: > 31.5 µM (inactive)
- IC50 [14]: 7.36 µM (active)

Structure (SMILES): O=C1c2ccccc2C(=O)N1c1nnc[nH]1
- IC50 [1]: > 100 µM (inactive)
- IC50 [2]: > 100 µM (not active)

Structure (SMILES): CCN1CCN(c2ncnc3sc(C)c(-c4ccccc4)c23)CC1
- EC50 [17]: 5.96 µM (active)

Structure (SMILES): Cc1cc2ncn(/N=C/c3ccc([N+](=O)[O-])o3)c2cc1C
- IC50 [5]: 51.4 µM (active)
- AC50 [18]: 15.8 µM (inconclusive)
- EC50 [19]: 0.195 µM (active)
- IC50 [7]: > 100 µM (inactive)
- EC50 [20]: 6.44 µM (active)
- AC50 [21]: 21.9 µM (active)
- IC50 [8]: 73.6 µM (active)
- AC50 [4]: 1.12 µM (inconclusive)
- EC50 [22]: 5.7 µM (active)
- EC50 [23]: 15.5 µM (active)

Structure (SMILES): O=C(N/N=C/c1sc(N2CCOCC2)nc1-c1ccccc1)c1cccc(S(=O)(=O)N2CCCC2)c1
- IC50 [5]: 24.5 µM (active)
- IC50 [7]: > 100 µM (inactive)
- EC50 [24]: 3.31 µM (active)
- IC50 [8]: 19.6 µM (active)
- AC50 [25]: 2.44 µM (active)
- EC50 [26]: 49.2 µM (active)

Structure (SMILES): Cc1cc(N2CCN(C(C(=O)NC3CCCC3)c3ccco3)CC2)c2ccccc2n1 (centres undefined)
- IC50 [27]: 27.3 µM (inactive)

Source: ChEMBL document CHEMBL1201862, “PubChem BioAssay data set” (2004)
